Reference: the supplement of paper PMC10307832

Columns and labels:
Test in all cases: relative viability (nuclei count vs DMSO), 5 days (fraction); higher = more cells survive
[1] = compound: COc1cc(Nc2c(C#N)cnc3cc(OCCCN4CCN(C)CC4)c(OC)cc23)c(Cl)cc1Cl [Bosutinib] + CS(=O)(=O)CCNCc1ccc(-c2ccc3ncnc(Nc4ccc(OCc5cccc(F)c5)c(Cl)c4)c3c2)o1 [Lapatinib] (partner 2 µM)
Procedure, shortened: (§1)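 One day after seeding in 1536-well plates, lung cancer cell lines were dosed by pin tool. Dosing was either single-drug or a fixed anchor-drug dose plus five library-drug doses (not always all listed) in √10 steps. After 5 days, nuclei were stained in one fix-and-stain step and counted on 4× images, and relative viability is the nuclei count of treated wells over that of vehicle wells, given as the median of duplicate plates.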

[2] = compound: COc1cc(Nc2c(C#N)cnc3cc(OCCCN4CCN(C)CC4)c(OC)cc23)c(Cl)cc1Cl [Bosutinib] + CC(=O)c1c(C)c2cnc(Nc3ccc(N4CCNCC4)cn3)nc2n(C2CCCC2)c1=O [Palbociclib] (partner 0.5 µM)
Procedure, shortened: as §1

[3] = compound: COc1cc(Nc2c(C#N)cnc3cc(OCCCN4CCN(C)CC4)c(OC)cc23)c(Cl)cc1Cl [Bosutinib] + N=C(N)NC(=N)NCCc1ccccc1 [Phenformin] (partner 250 µM)
Procedure, shortened: as §1

[4] = compound: COc1cc(Nc2c(C#N)cnc3cc(OCCCN4CCN(C)CC4)c(OC)cc23)c(Cl)cc1Cl [Bosutinib] + O=C(c1cc(Cc2n[nH]c(=O)c3ccccc23)ccc1F)N1CCN(C(=O)C2CC2)CC1 [Olaparib] (partner 8 µM)
Procedure, shortened: as §1

[5] = compound: COc1cc(Nc2c(C#N)cnc3cc(OCCCN4CCN(C)CC4)c(OC)cc23)c(Cl)cc1Cl [Bosutinib] + Nc1nc2[nH]cc(CCc3ccc(C(=O)N[C@@H](CCC(=O)O)C(=O)O)cc3)c2c(=O)[nH]1 [Pemetrexed] (partner 0.2 µM)
Procedure, shortened: as §1

Cell Line	relative viability ([1]; first compound 0.01 µM)	relative viability ([1]; first compound 0.03162 µM)	relative viability ([1]; first compound 0.1 µM)	relative viability ([1]; first compound 1 µM)	relative viability ([2]; first compound 0.01 µM)	relative viability ([2]; first compound 0.03162 µM)	relative viability ([2]; first compound 0.1 µM)	relative viability ([2]; first compound 1 µM)	relative viability ([3]; first compound 0.01 µM)	relative viability ([3]; first compound 0.03162 µM)	relative viability ([3]; first compound 0.1 µM)	relative viability ([3]; first compound 1 µM)	relative viability ([4]; first compound 0.01 µM)	relative viability ([4]; first compound 0.03162 µM)	relative viability ([4]; first compound 0.1 µM)	relative viability ([4]; first compound 1 µM)	relative viability ([5]; first compound 0.01 µM)	relative viability ([5]; first compound 0.03162 µM)	relative viability ([5]; first compound 0.1 µM)	relative viability ([5]; first compound 1 µM)
NCI-H650	0.889	1.07	0.948	1.15	0.398	0.325	0.332	0.406	0.447	0.45	0.472	0.482	0.407	0.357	0.424	0.424	0.893	0.846	0.972	0.953
NCI-H661	0.489	0.511	0.468	0.354	0.392	0.398	0.434	0.363	0.281	0.3	0.287	0.269	0.696	0.736	0.743	0.649	0.919	0.908	0.952	0.741
NCI-H838	1.18	0.94	0.922	0.604	0.23	0.209	0.2	0.174	0.658	0.56	0.53	0.375	0.84	0.752	0.684	0.406	0.268	0.229	0.246	0.253
NCI-H1355	1.01	1.04	1.09	0.957	0.415	0.396	0.386	0.372	0.517	0.474	0.448	0.362	0.715	0.733	0.784	0.633	1.05	0.975	1.06	1.05
NCI-H1395	1.26	1.06	0.914	1.08	0.595	0.539	0.643	0.48	0.38	0.44	0.461	0.451	0.456	0.511	0.468	0.487	0.964	0.966	0.958	0.926
NCI-H1437	0.89	0.798	0.784	0.702	0.332	0.281	0.317	0.343	0.341	0.305	0.335	0.287	0.609	0.635	0.604	0.545	0.317	0.377	0.311	0.29
NCI-H1650	0.835	0.731	0.745	0.636	0.343	0.315	0.304	0.188	0.434	0.344	0.339	0.318	0.705	0.717	0.632	0.565	0.304	0.366	0.404	0.301
NCI-H1651	0.923	0.877	0.767	0.823	0.506	0.535	0.507	0.534	0.32	0.322	0.331	0.357	0.184	0.189	0.184	0.201	0.529	0.678	0.643	0.569
